Data taken from paper PMC7582929, “Characterization of Cetacean Proline-Rich Antimicrobial Peptides Displaying Activity against ESKAPE Pathogens” (International Journal of Molecular Sciences, 2020).
Where two headings read alike, the source gives them in different places. Ends that are not written are not given here.

What was measured:
[1] = system: C. albicans ATCC 90029; type: cell-based, Candida albicans; settings: ATCC 90029, 18 h
Excerpt: (§1) The following microbial reference strains were utilized: Escherichia coli BW25113, E. coli ATCC 25922, E. coli ML35p, Enterococcus faecium ATCC 19434, Staphylococcus aureus ATCC 25923, Klebsiella pneumoniae ATCC 700603, Acinetobacter baumannii ATCC 19606, Pseudomonas aeruginosa ATCC 27853, Stenotrophomonas maltophilia ATCC 13637, Candida albicans ATCC 90029. The ΔsbmA strain of E. coli BW25113 belongs to the KEIO collection and the clinical isolate of Enterobacter agglomerans was kindly provided by Prof. C. Lagatolla from the Microbiology Laboratory of the University of Trieste. All the growth media were purchased from Difco (part of Thermo Fisher Scientific, MA, USA).
(§2) Bacteria were grown in Mueller-Hinton broth (MHB), except E. faecium, which was grown overnight in brain-heart infusion (BHI); E. coli BW25113 ΔsbmA was grown in the presence of 50 μg/mL kanamycin. C. albicans was grown in Sabouraud broth.
(§3) All the strains were grown overnight at 37 °C (except E. agglomerans, S. maltophilia and C. albicans, which were grown at 30 °C), with shaking at 140 rpm. The overnight bacterial cultures were then diluted approximately 1:40 in fresh growth medium and incubated at 37 °C or 30 °C with shaking (140 rpm) until an OD600 of between 0.3 and 0.5 was reached.
(§4) The minimum inhibitory concentration was determined by the broth microdilution method according to the NCCLS protocol. Briefly, an overnight bacterial or fungal culture was diluted in fresh MH or Sabouraud broth, respectively (300 µL O/N culture in 10 mL MHB/Sabouraud) and the culture was let grow at 37 °C or 30 °C to reach OD600 between 0.3 and 0.5. Serial two-fold dilutions of peptides were then performed in culture medium (Sabouraud, MHB or 20% MHB in PBS), to a final volume of 50 µL in the wells of a round bottom microtiter plate (Sarstedt, Milan, Italy), and then the bacterial suspension with a load of 5 × 10^5 CFU/mL was added to the plate, halving the final concentration of bacteria and peptides. The culture was grown at 37 °C or 30 °C and the MIC was determined after 18h by visual inspection as the first clear well. The assessment was performed taking into consideration at least three independent experiments performed in duplicate.

[2] = system: S. maltophilia ATCC 13637; type: cell-based, Stenotrophomonas maltophilia; settings: ATCC 13637, 18 h
Excerpt: as §1, §2, §3, §4

[3] = Resuspension of the peptides in Mueller-Hinton broth; type: physicochemical; settings: 100% Mueller-Hinton broth
Excerpt: . To solve this issue and determine how it affected antimicrobial activity, bacterial susceptibility tests were repeated with most strains using 20% Mueller-Hinton broth. With some exceptions, these four peptides did indeed increase their activity in this medium, as did the others, in such a manner that the relative differences remained substantially unchanged (Table S1). Therefore, sequence-activity considerations remain valid.

[4] = system: P. aeruginosa ATCC 27853; type: cell-based, Pseudomonas aeruginosa; settings: 20% Mueller-Hinton broth in PBS, median of n ≥ 3
Excerpt: as §1, §2, §3
(§5) The minimum inhibitory concentration was determined by the broth microdilution method according to the NCCLS protocol. […]

[5] = system: E. coli BW25113; type: cell-based, Escherichia coli
Excerpt: as §1, §2, §3, §4

[6] = system: bacterial protein synthesis (E. coli extracts); experiment: In vitro transcription/translation assay (firefly luciferase reporter); type: biochemical; settings: E. coli lysate, 30 °C, 1 h, increasing peptide concentrations up to 25 µM, n ≥ 3
Description: Several PrAMPs derived from artiodactyl or insect peptides act by interfering with bacterial protein synthesis. To evaluate if the cePrAMPs also targeted this process, in vitro transcription/translation assays were carried out in their presence, assessing the inhibition of the synthesis of a reporter luciferase (Figure 3). […].  Figure 3 Luciferase activity after in vitro transcription/translation reactions in presence of cePrAMPs. E. coli extracts were incubated with the firefly luciferase reporter DNA in the presence of increasing concentrations of cePrAMPs. Results are presented as the percentage with respect to control samples treated with only RNase-free water. Average and standard deviation of at least three independent experiments (n ≥ 3).
Reactions were set up using lysates of the RTS 100 E. coli HY kit from Biotechrabbit (Berlin, Germany) according to the user manual. Briefly, 1 μL of peptide solution was added to each reaction to reach the desired final concentration in a final volume of 6 μL. […] The presence of luciferase reporter protein was quantified by measuring its luminescence using a Infinite M200 plate reader (Tecan, Männedorf, Switzerland). The relative luminescence values for all the assays were calculated as a percentage of the positive control (reactions with nuclease-free water instead of the peptides) using three independent replicates. […]

[7] = system: K. pneumoniae ATCC 700603; type: cell-based, Klebsiella pneumoniae; settings: 20% Mueller-Hinton broth in PBS, median of n ≥ 3
Excerpt: as §1, §2, §3, §5

[8] = system: E. faecium ATCC 19434; type: cell-based, Enterococcus faecium; settings: ATCC 19434, 18 h
Excerpt: as §1, §2, §3, §4

[9] = system: E. agglomerans—clinical isolate; type: cell-based, Enterobacter agglomerans; settings: 18 h
Excerpt: as §1, §2, §3, §4

[10] = system: E. coli BW25113—Δ SbmA; type: cell-based, Escherichia coli; settings: E. coli BW25113 ΔSbmA, median of n ≥ 3
Excerpt: as §1, §2, §3, §4

[11] = system: panel of reference pathogenic bacterial and fungal strains; type: cell-based
Excerpt: as §1, §2, §3, §4

[12] = system: S. aureus ATCC 25923; type: cell-based, Staphylococcus aureus; settings: ATCC 25923, 18 h
Excerpt: as §1, §2, §3, §5

[13] = system: human red blood cells (hRBCs); type: cell-based
Description: Figure 4 Evaluation of in vitro toxicity of CePrAMPs. (A) Hemolysis assay against human red blood cells (hRBCs), re-suspended in PBS at 4% (v/v) concentrations, measured as the absorbance of released hemoglobin (540 nm) after 1 h of exposure to the peptides. Results are reported as percentages with respect to hRBCs treated for 1 h with 1% Triton X-100 (considered as 100%), and are the average of three independent experiments (n = 3); (B,C) Evaluation via MTT assay of the viability of the indicated eukaryotic cell lines after exposure to the peptides. HaCat (B) or MEC-1 (C) cells were incubated with the different peptides at increasing concentrations for 21 h (B) or 20 h (C), before treating cells with MTT. Results are reported as the percentage of viable cells with respect to the untreated control, and are the average of three independent experiments (n = 3) (* = p < 0.05; ** = p < 0.01).
The lytic potential towards eukaryotic cell membranes was assessed by measuring the release of hemoglobin from human red blood cells (hRBCs) after exposure to the peptides. hRBCs were collected from single donor- human whole blood (Cambridge Bioscience, UK), being isolated by centrifugation, washed three times with PBS, and resuspended to either 8% or 0.8% (v/v) in PBS. […]

[14] = broth microdilution (NCCLS), Mueller-Hinton broth, 37 °C, 18 h, visual
[15] = against P. aeruginosa and E. faecium
[16] = against all the Gram-negative pathogen and C. albicans
[17] = 20% Mueller-Hinton broth in PBS

Sequence | MIC [1] | MIC [2] | resuspension in growth medium [3] | MIC [4] | MIC ([5]; BW25113, 18 h) | MIC ([5]; E. coli BW25113, 20% Mueller-Hinton broth in PBS, median of n ≥ 3) | inhibition of in vitro transcription/translation (luciferase activity) [6] | MIC [7] | MIC [8] | MIC [9] | MIC [10, 14] | MIC [11, 15] | MIC ([11]; against P. aeruginosa and E. faecium, listed as Lip) | MIC [11, 16] | MIC [10, 17] | MIC [12] | hemolytic effect [13] | MIC ([11]; against P. aeruginosa and E. faecium, listed as Bal)
RRIRFPFPPFPWQWPPAGF [Neo1] | 32 µM | 24 µM | difficult to resuspend in 100% Mueller-Hinton broth | 64 µM | 24 µM | 16 µM | almost no inhibitory activity on protein synthesis | > 64 µM | >64 µM | 64 µM | – | – | – | – | – | – | – | –
RRIPFWPPNLPGPRRPPWFLPDFRIPRIPRKR [Orc1] | 4 µM | 2 µM | – | – | – | – | – | – | 16 µM | 8 µM | 2 µM | – | – | – | – | – | – | –
RRIRIRPPRLPRPRPRPWFPPRFPIPRIPGKR [Lip1] | 2 µM | 0.5 µM | – | – | – | – | – | – | 4 µM | 0.5 µM | 1.5 µM | 2 to 4 µM | ≤ 4 µM | ≤ 2 µM | 0.5 µM | – | – | –
RRIRPRPPRLPRPRPRPLPFPRPGPRPIPRPLPFP [Bac7(1-35), reference compound] | 2 µM | 1 µM | – | – | – | – | – | – | 64 µM | 0.5 µM | 8 µM | – | – | – | 2 µM | >64 µM | – | –
RRIPFWPIPLRWQWPPPWFPPSFPIPRISRKR [Del1] | 8 µM | 4 µM | – | – | – | – | – | – | 4 µM | 8 µM | 8 µM | – | – | – | 1 µM | – | relatively high hemolytic effect | –
RRIRFRPPRLPRPRPRPWIPPRFPFPRIPGKR [Bal1] | 1.5 µM | 1 µM | – | – | – | – | – | – | 4 µM | 0.5 µM | 2 µM | 2 to 4 µM | – | ≤ 2 µM | 0.5 µM | – | – | ≤ 4 µM
